This note sets out measurements from patent US11484599B2, “Polymer conjugate vaccines” (The University of Chicago, priority 2015, dated 2022).

Data set [1] relates to bone marrow derived dendritic cells (BMDCs). In words: Viability / toxicity in treated BMDCs. Format: cell-based. As to conditions: 10 μM. The text has this:
Given that DCs are the primary target for the polymer-conjugates, Applicants treated bone marrow derived dendritic cells (BMDCs) with various concentrations of TLR7-MA, p(man-TLR), or the synthetic oligonucleotide CpG, a powerful TLR-9 agonist.

Data set [2] addresses T1, TLR7 (Homo sapiens, UniProt Q9NYK1).
T1 sequence (Q9NYK1 27-1049): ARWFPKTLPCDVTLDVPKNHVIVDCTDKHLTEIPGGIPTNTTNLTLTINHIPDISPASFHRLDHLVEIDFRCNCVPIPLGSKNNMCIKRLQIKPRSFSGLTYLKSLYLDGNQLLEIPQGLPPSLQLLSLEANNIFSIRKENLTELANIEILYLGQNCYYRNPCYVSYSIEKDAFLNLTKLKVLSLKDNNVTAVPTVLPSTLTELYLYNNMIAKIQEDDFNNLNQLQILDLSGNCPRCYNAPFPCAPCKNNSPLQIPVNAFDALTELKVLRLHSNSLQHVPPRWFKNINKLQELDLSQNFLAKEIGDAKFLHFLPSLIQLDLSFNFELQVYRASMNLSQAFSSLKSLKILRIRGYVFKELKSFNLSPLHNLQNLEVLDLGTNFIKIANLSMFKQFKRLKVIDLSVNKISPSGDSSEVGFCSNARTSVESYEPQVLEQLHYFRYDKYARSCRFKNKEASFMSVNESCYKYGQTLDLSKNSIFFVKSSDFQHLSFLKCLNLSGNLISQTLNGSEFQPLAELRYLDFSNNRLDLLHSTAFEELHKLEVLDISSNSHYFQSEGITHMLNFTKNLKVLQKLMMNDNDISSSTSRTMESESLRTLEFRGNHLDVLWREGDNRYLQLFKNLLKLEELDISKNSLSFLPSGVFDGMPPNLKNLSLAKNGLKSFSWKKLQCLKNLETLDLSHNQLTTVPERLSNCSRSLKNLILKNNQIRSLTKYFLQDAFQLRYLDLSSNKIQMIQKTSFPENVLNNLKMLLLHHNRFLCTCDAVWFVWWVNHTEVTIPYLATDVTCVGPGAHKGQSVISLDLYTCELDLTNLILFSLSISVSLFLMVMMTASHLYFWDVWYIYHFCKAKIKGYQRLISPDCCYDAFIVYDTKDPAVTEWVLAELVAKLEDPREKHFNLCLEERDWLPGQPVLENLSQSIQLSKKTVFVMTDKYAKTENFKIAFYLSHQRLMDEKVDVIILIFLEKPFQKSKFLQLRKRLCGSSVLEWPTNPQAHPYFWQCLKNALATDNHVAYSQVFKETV
In words: HEK-Blue TLR7-activation reporter cell assay. As to conditions: media with 2.0 μM agonist (polymer: 2.0 μM of TLR7-MA in polymeric form), 12 h.

The test system of data set [3] is lymph node resident DC subsets. In words: Uptake of fluorescently labeled OVA by lymph node DC subsets after i.d. injection. The format is in vivo, mice. The conditions noted are these: 12 h. How it is done: Mice were treated with an intradermal injection of fluorescently labeled OVA or fluorescently labeled OVA conjugated to either p(Man) or p(Man-TLR). After 12 h, the lymph nodes of the animals were harvested and the cells of the lymph nodes were analyzed for fluorescently labeled OVA content via flow cytometry. Conjugation of OVA to p(Man-TLR) increases the uptake of OVA by CD8+ cross-presenting DCs (a.), CD4+ activating DCs (b.), CD4−/CD8− lymph node resident DCs (c.), and conventional dermal DCs (d.).
It is contemplated that conjugating p(Man-TLR) to antigens will improve their uptake by DCs and increased DC activation. […] After 12 h, the lymph node resident DC subsets of these animals were analyzed for fOVA.

The subject of data set [4] is circumsporozite protein (CSP) from Plasmodium falciparum. In words: Example 12: vaccination with malaria antigen CSP formulations, cellular and humoral response. Format: in vivo, mice. The protocol: FIG. 17: To characterize the response to an actual vaccinal antigen, and to compare to an advanced clinical adjuvant, the inventors made the polymer conjugate formulation with the P. falciparum antigen CSP (the full-length protein).
FIG. 18: To characterize humoral responses to the CSP-p(Man-TLR) polymer conjugate formulation, Tfh cells were characterized in the spleen and IgG concentrations were measured in the blood.
The inventors benchmarked the performance of antigen-p(Man-TLR) conjugates against other vaccine adjuvant formulations that have been reported to produce effective immune responses, using a malaria antigen, specifically circumsporozite protein (CSP) from Plasmodium falciparum. Mice were treated on days 0 and 21 via intradermal injection into the 4 footpads with CSP-p(Man-TLR), CSP and MPLA/QS-21 liposomes (AS01E), CSP and the adjuvant R848, CSP and poly(I:C), or saline (Vehicle). AS01E is used in a clinical malaria vaccine formulation. All animals treated with formulations containing CSP received 10 μg of CSP. Animals treated with CSP-p(Man-TLR) received 20 μg TLR agonist in the polymeric form. Animals treated with AS01E received 2.5 μg of QS21. Animals treated with CSP and R848 were treated with 20 μg of R848. Animals treated with CSP and poly(I:C) received 15 μg poly(I:C). […] CSP-p(Man-TLR) induced a robust humoral response.

Data set [5] deals with CSP peptide stretches. In words: Breadth of IgG response on arrays of peptides from the sequence of CSP. The format is in vivo, mice.

Consider `C=C(C)C(=O)NCCOC(=O)NCc1ccc(Cn2c(COCC)nc3c(N)nc4ccccc4c32)cc1` [TLR7-MA, 2-methacrylamidoethyl 4-((4-amino-2-(ethoxymethyl)-1H-imidazo[4,5-c]quinolin-1-yl)methyl)benzylcarbamate], for which the “cell viability / toxicity” value in data set [1] is “no significant decrease in viability”. Further, the “increase in TLR7 activation” value in data set [2] was determined as 4 fold.

In the case of “fOVA-p(Man-TLR): fluorescently labeled Ovalbumin (fOVA) conjugated to p(Man-TLR)”, the “fOVA positive CD8+ cross presenting DCs vs fOVA” value in data set [3] (FIG. 9A) was “More than twice as many”. In addition, the “increase in number of CD4 activating DCs positive for fOVA vs fOVA” value in data set [3] (FIG. 9B) worked out at 3 fold. Also, in data set [3] (FIG. 9C-D), the “targeting of double negative DCs and dermal conventional DCs vs free fOVA” value is “able to target both double negative DCs and dermal conventional DCs”. For the same molecule, in data set [3] (lymph node DCs), the “OVA uptake by DCs vs fOVA” value is on record as “took up significantly more OVA”.

B1: CSP-p(Man-TLR): P. falciparum circumsporozite protein (CSP, full-length) conjugated to p(Man-TLR) (conjugate, UniProt P02893 1-412, looked up)
chain: MMRKLAILSVSSFLFVEALFQEYQCYGSSSNTRVLNELNYDNAGTNLYNELEMNYYGKQENWYSLKKNSRSLGENDDGNNNNGDNGREGKDEDKRDGNNEDNEKLRKPKHKKLKQPGDGNPDPNANPNVDPNANPNVDPNANPNVDPNANPNANPNANPNANPNANPNANPNANPNANPNANPNANPNANPNANPNANPNANPNANPNVDPNANPNANPNANPNANPNANPNANPNANPNANPNANPNANPNANPNANPNANPNANPNANPNANPNANPNANPNANPNKNNQGNGQGHNMPNDPNRNVDENANANNAVKNNNNEEPSDKHIEQYLKKIKNSISTEWSPCSVTCGNGIQVRIKPGSANKPKDELDYENDIEKKICKMEKCSSVFNVVNSSIGLIMVLSFLFLN
modifications: full-length p(Man-TLR) polymer conjugate
Turning to B1, in data set [4] (days 0 and 21), the “IFNγ+CD8+ cells in the lymph nodes vs CSP and R848 and CSP and AS01E” value is reported as “induced more IFNγ+CD8+ cells in the lymph nodes”; the “splenic T follicular helper cells and total IgG response in the blood vs other treatments” value was “generated more splenic T follicular helper cells and a more robust total IgG response in the blood”. For the same molecule, the “IFNγ+ and TNFα+ CD4+ T cells in the spleen vs other therapies” value in data set [4] (intradermal, 4 footpads, days 0 and 21, 10 μg CSP, 20 μg TLR agonist) was “induces more IFNγ+ and TNFα+ cCD4+ T cells in the spleen”. In addition, the “highest value in the plot of antibody response to CSP regions” value in data set [5] (FIG. 21) is “approx. 60000 units”. In data set [5] (antibodies binding to CSP peptide arrays), the “breadth of IgG response” value is reported as “induced a broader and/or qualitatively distinct IgG response”.
